Test results reported in patent US10981186B2, “Functional treatment application to particulate materials such as mulch or potting soil” (priority 2014, dated 2021).

What was measured:
[1] = Screening test 4: recovery of herbicide active ingredient from mulch (methanol extraction, HPLC); format: physicochemical
Method: Screening test 4: Recovery of functional material from particulate material
In this experimental study the herbicide active ingredient was analyzed as the content of functional material (herbicide) as the active ingredient in the particulate material (mulch).
Assay protocol: Ten milliliters of 100% methanol was used to extract the herbicide actives, Pendimethalin and Dimethenamid-P from one gram of mulch. Methanol and mulch were added to a vial and shaken at approximately 180 rpm for 30 minutes on a shaker table. Methanol was filtered from mulch and analyzed for actives via HPLC. Active ingredient recovery was recorded as weight percent. […]
Table 2 and Table 3 show the results of an experiment related to the recovery of herbicide active ingredient from particulate material after providing functional herbicide coating. Table 2 and Table 3 show active ingredient releasing from the mulch at one month exposure compared to non-exposed mulch in warehouse.

[2] = tested on: red imported fire ant (Solenopsis invicta) workers; details: rate evaluation, 0.5 to 3 X label rate
Text: Testing with red imported fire ant (Solenopsis invicta, RIFA), Argentine ant (Linepthema humile), and odorous house ant (OHA) workers. Ten inch plastic arenas (inside walls coated with Fluon® to prevent escape) were provided a layer of moistened play sand. A band of mulch was placed across the arena near one side. Between the closest side and the mulch, a micro-centrifuge tube with a universal ant diet was placed. In the larger open area of the arena was placed a water vial and a small weigh boat with either corn grit+soybean oil (RIFA) or 20% honey water (Argentine ant and OHA). Approximately 100 ants were placed in each arena. Mortality was evaluated at 6 or 7 days.

[3] = Black mulch, Warehouse (non-exposed)
[4] = Natural mulch, Warehouse (non-exposed)
[5] = Red mulch, Warehouse (non-exposed)

## CCC(CC)Nc1c([N+](=O)[O-])cc(C)c(C)c1[N+](=O)[O-] [pendimethalin]
[1]; Black mulch, Bottom 1 month
  weight percent of pendimethalin: 0.00005 weight percent
[1]; Black mulch, Top 1 month
  weight percent of pendimethalin: 0.00044 weight percent
[1]; [3]
  weight percent of pendimethalin: 0.0044 weight percent
[1]; Natural mulch, Bottom 1 month
  weight percent of pendimethalin: 0.00026 weight percent
[1]; Natural mulch, Top 1 month
  weight percent of pendimethalin: 0.00079 weight percent
[1]; [4]
  weight percent of pendimethalin: 0.00674 weight percent
[1]; Red mulch, Bottom 1 month
  weight percent of pendimethalin: 0.00026 weight percent
[1]; Red mulch, Top 1 month
  weight percent of pendimethalin: 0.00054 weight percent
[1]; [5]
  weight percent of pendimethalin: 0.00302 weight percent

## COC[C@H](C)N(C(=O)CCl)c1c(C)csc1C [dimethenamid-P]
[1]; Black mulch, Bottom 1 month
  weight percent of dimethenamid-P: <LOD
[1]; Black mulch, Top 1 month
  weight percent of dimethenamid-P: 0.00003 weight percent
[1]; [3]
  weight percent of dimethenamid-P: 0.002 weight percent
[1]; Natural mulch, Bottom 1 month
  weight percent of dimethenamid-P: <LOD
[1]; Natural mulch, Top 1 month
  weight percent of dimethenamid-P: 0.00004 weight percent
[1]; [4]
  weight percent of dimethenamid-P: 0.00203 weight percent
[1]; Red mulch, Bottom 1 month
  weight percent of dimethenamid-P: 0.00000 weight percent
[1]; Red mulch, Top 1 month
  weight percent of dimethenamid-P: 0.00002 weight percent
[1]; [5]
  weight percent of dimethenamid-P: 0.00233 weight percent

## CN/C(=N/CC1CCOC1)N[N+](=O)[O-] (stereo not shown) [dinotefuran]
[2]
  effectiveness over the rates tested (conclusion in words): effective at all rates tested
